Results published in US8399480B2, “Hydroxymethyl pyrrolidines as beta 3 adrenergic receptor agonists” (Merck Sharp & Dohme Corp., priority 2008, dated 2013).

Molecular target: T1, human β3 adrenergic receptor (Homo sapiens, UniProt P13945)
T1 construct: expressed in transfected cells; host or cells: Chinese hamster ovary (CHO) cells, stably transfected
Test: Functional assay: cAMP production (LANCE TR-FRET) in CHO cells stably transfected with cloned β3 adrenergic receptor
Format: cell-based
Conditions: Table 7; β3AR-cAMP; read-out: Human β3 Functional
How it was run: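 Agonist-stimulated cAMP in CHO cells stably expressing human β3 receptor, 6,000 cells per well in HBSS/HEPES/0.1% BSA with 0.6 mM IBMX, 30 min at room temperature. LANCE TR-FRET readout converted to cAMP via standard curve; maximal stimulation defined with isoproterenol.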

T1 sequence (P13945 whole entry): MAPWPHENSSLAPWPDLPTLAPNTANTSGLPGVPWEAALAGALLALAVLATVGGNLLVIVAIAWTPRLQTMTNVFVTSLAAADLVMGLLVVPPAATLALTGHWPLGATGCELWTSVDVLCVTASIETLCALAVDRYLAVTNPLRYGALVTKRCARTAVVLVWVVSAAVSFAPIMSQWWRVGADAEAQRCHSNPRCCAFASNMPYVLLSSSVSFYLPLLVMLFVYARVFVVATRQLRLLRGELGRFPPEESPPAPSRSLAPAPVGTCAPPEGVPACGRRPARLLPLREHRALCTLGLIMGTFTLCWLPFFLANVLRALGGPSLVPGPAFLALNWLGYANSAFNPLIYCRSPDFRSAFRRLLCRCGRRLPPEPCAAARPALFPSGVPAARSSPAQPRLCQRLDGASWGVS

| Compound | EC50 |
| --- | --- |
| Cc1nn(C)c(Cl)c1S(=O)(=O)Nc1ccc(C[C@@H]2CC[C@H]([C@H](O)c3ccccc3)N2)cc1 [Example 247] | 1000 to 3000 nM |
| O=S(=O)(Cc1ccccn1)Nc1ccc(C[C@@H]2CC[C@H]([C@H](O)c3ccccc3)N2)cc1 [Example 248] | 101 to 1000 nM |
| O=S(=O)(Cc1cccnc1)Nc1ccc(C[C@@H]2CC[C@H]([C@H](O)c3ccccc3)N2)cc1 [Example 249] | 1000 to 3000 nM |
| O=S(=O)(Cc1ccncc1)Nc1ccc(C[C@@H]2CC[C@H]([C@H](O)c3ccccc3)N2)cc1 [Example 250] | 101 to 1000 nM |

Same assay, conditions: Table 8; read-out: Human β3 Functional

| Compound | EC50 |
| --- | --- |
| O=C(NCc1nnc(-c2ccccc2)[nH]1)Nc1ccc(C[C@@H]2CC[C@H]([C@H](O)c3ccccc3)N2)cc1 [Example 255] | 1 to 10 nM |
| O=C(Nc1ccc(C[C@@H]2CC[C@H]([C@H](O)c3ccccc3)N2)cc1)N1CCC2(CCOC2=O)CC1 [Example 258] | 101 to 1000 nM |
| O=C1OC2(CCN(C(=O)Nc3ccc(C[C@@H]4CC[C@H]([C@H](O)c5ccccc5)N4)cc3)CC2)c2cnccc21 [Example 259] | 101 to 1000 nM |

Other lines, results leading:

| EC50 | Compound |
| --- | --- |
| 101 to 1000 nM | CC(NC(=O)Nc1ccc(C[C@@H]2CC[C@H]([C@H](O)c3ccccc3)N2)cc1)c1cscn1 (some centres unmarked) [Example 252] |
| 11 to 100 nM | CN(Cc1cscn1)C(=O)Nc1ccc(C[C@@H]2CC[C@H]([C@H](O)c3ccccc3)N2)cc1 [Example 253] |
| 101 to 1000 nM | O=C(NCc1ccccc1F)Nc1ccc(C[C@@H]2CC[C@H]([C@H](O)c3ccccc3)N2)cc1 [Example 254] |
| 11 to 100 nM | Cc1cc(C)nc(CNC(=O)Nc2ccc(C[C@@H]3CC[C@H]([C@H](O)c4ccccc4)N3)cc2)n1 [Example 256] |
| 101 to 1000 nM | O=C(Nc1ccc(C[C@@H]2CC[C@H]([C@H](O)c3ccccc3)N2)cc1)N1CCc2cccnc21 [Example 257] |

Same assay, conditions: Table 9; read-out: Human β^3 Functional

| Compound | EC50 |
| --- | --- |
| CC(C(=O)Nc1ccc(C[C@@H]2CC[C@H]([C@H](O)c3ccccc3)N2)cc1)N(C)C(=O)c1ccccn1 (some centres unmarked) [Example 265] | 101 to 1000 nM |
| CC(NC(=O)c1c(F)cccc1F)C(=O)Nc1ccc(C[C@@H]2CC[C@H]([C@H](O)c3ccccc3)N2)cc1 (some centres unmarked) [Example 267] | < 1 nM |
| CC(NC(=O)c1ncccn1)C(=O)Nc1ccc(C[C@@H]2CC[C@H]([C@H](O)c3ccccc3)N2)cc1 (some centres unmarked) [Example 268] | < 1 nM |
| CC(NC(=O)c1cnccn1)C(=O)Nc1ccc(C[C@@H]2CC[C@H]([C@H](O)c3ccccc3)N2)cc1 (some centres unmarked) [Example 269] | 1 to 10 nM |
| CC(N)C(=O)Nc1ccc(C[C@@H]2CC[C@H]([C@H](O)c3ccccc3)N2)cc1 (some centres unmarked) [Example 270] | 11 to 100 nM |
| CC(NC(=O)c1cc[nH]n1)C(=O)Nc1ccc(C[C@@H]2CC[C@H]([C@H](O)c3ccccc3)N2)cc1 (some centres unmarked) [Example 271] | < 1 nM |
| CC(NC(=O)c1ccccc1)C(=O)Nc1ccc(C[C@@H]2CC[C@H]([C@H](O)c3ccccc3)N2)cc1 (some centres unmarked) [Example 272] | < 1 nM |
| CC(NS(=O)(=O)Cc1ccccc1)C(=O)Nc1ccc(C[C@@H]2CC[C@H]([C@H](O)c3ccccc3)N2)cc1 (some centres unmarked) [Example 273] | 11 to 100 nM |

Same assay, conditions: Table 10; β3AR-cAMP; read-out: Human β3 Functional

| Compound | EC50 |
| --- | --- |
| O=C(Nc1ccc(C[C@@H]2CC[C@H]([C@H](O)c3cccc(F)c3)N2)cc1)[C@H]1CCc2scnc21 [Example 278] | 11 to 100 nM |
| O=C(Nc1ccc(CC2CCC(C(O)c3cccc(F)c3)N2)cc1)C1CCc2scnc21 (centres unmarked) [Example 279] | < 1 nM |
| Cc1nnc(CC(=O)Nc2ccc(C[C@@H]3CC[C@H]([C@H](O)c4cccc(F)c4)N3)cc2)[nH]1 [Example 280] | 1 to 10 nM |
| O=C(Cn1ncccc1=O)Nc1ccc(C[C@@H]2CC[C@H]([C@H](O)c3cccc(F)c3)N2)cc1 [Example 281] | 1 to 10 nM |

Same assay, conditions: Table 11; read-out: Human β3 Functional

| Compound | EC50 |
| --- | --- |
| O=C(Nc1ccc(C[C@@H]2CC[C@H]([C@H](O)c3ccc(F)cc3)N2)cc1)[C@@H]1CCc2scnc21 [Example 284] | < 1 nM |
| O=C(Cn1ncccc1=O)Nc1ccc(C[C@@H]2CC[C@H]([C@H](O)c3ccc(F)cc3)N2)cc1 [Example 287] | 1 to 10 nM |

Same assay, conditions: Table 12; read-out: Human β3 Functional

| Compound | EC50 |
| --- | --- |
| O=C(Nc1ccc(C[C@@H]2CC[C@H]([C@H](O)c3ccc(F)c(F)c3)N2)cc1)[C@@H]1CCc2scnc21 [Example 290] | < 1 nM |

Same assay, conditions: given as a range; cAMP, CHO cells; read-out: human β3 functional activity

| Compound | EC50 |
| --- | --- |
| Nc1nc(CC(=O)Nc2ccc(C[C@@H]3CC[C@H]([C@H](O)c4ccccc4)N3)cc2Br)cs1 [Example 312, 2-(2-Amino-1,3-thiazol-4-yl)-N-[2-bromo-4-({(2S,5R)-5-[(R)-hydroxy(phenyl)methyl]pyrrolidin-2-yl}methyl)phenyl]acetamide] | 11 to 100 nM |
| Nc1nc(CC(=O)Nc2ccc(C[C@H]3CC[C@H]([C@H](O)c4ccccc4)N3)cc2Br)cs1 [Example 313, 2-(2-Amino-1,3-thiazol-4-yl)-N-[2-bromo-4-({(2R,5R)-5-[(R)-hydroxy(phenyl)methyl]pyrrolidin-2-yl}methyl)phenyl]acetamide] | 101 to 1000 nM |

Next, values leading:

| EC50 | Compound |
| --- | --- |
| 11 to 100 nM | COc1cccc(NC(=O)Nc2ccc(C[C@@H]3CC[C@H]([C@H](O)c4ccccc4)N3)cc2)c1 [Example 251, N-[4-({(2S,5R)-5-[(R)-hydroxy(phenyl)methyl]pyrrolidin-2-yl}methyl)phenyl]-N′-(3-methoxyphenyl)urea] |
| < 1 nM | C[C@H](NC(=O)c1ccccc1F)C(=O)Nc1ccc(C[C@@H]2CC[C@H]([C@H](O)c3ccccc3)N2)cc1 [Example 263, 2-Fluoro-N-((1S)-2-{[4-({(2S,5R)-5-[(R)-hydroxy(phenyl)methyl]pyrrolidin-2-yl}methyl)phenyl]amino}-1-methyl-2-oxoethyl)benzamide] |
| 11 to 100 nM | C[C@H](NS(=O)(=O)c1ccc(F)cc1)C(=O)Nc1ccc(C[C@@H]2CC[C@H]([C@H](O)c3ccccc3)N2)cc1 [Example 264, (2S)-2-{[(4-Fluorophenyl)sulfonyl]amino}-N-[4-({(2S,5R)-5-[(R)-hydroxy(phenyl)methyl]pyrrolidin-2-yl}methyl)phenyl]propanamide] |

Same assay, conditions: human β3 functional activity, shown as ranges; Table 13; read-out: Human β3 Functional

| Compound | EC50 |
| --- | --- |
| O=C(Nc1ccc(C[C@@H]2CC[C@H]([C@H](O)c3cccc(Cl)c3)N2)cc1)[C@H]1CCc2scnc21 [Example 296] | 11 to 100 nM |
| O=C(Nc1ccc(C[C@@H]2CC[C@H]([C@H](O)c3cccc(Cl)c3)N2)cc1)[C@@H]1CCc2scnc21 [Example 297] | < 1 nM |
| Nc1nc(CC(=O)Nc2ccc(C[C@@H]3CC[C@H]([C@H](O)c4cccc(Cl)c4)N3)cc2)cs1 [Example 304] | 1 to 10 nM |
| O=C(Cn1ncccc1=O)Nc1ccc(C[C@@H]2CC[C@H]([C@H](O)c3cccc(Cl)c3)N2)cc1 [Example 305] | 11 to 100 nM |

Molecular target: T2, β3AR (Rattus norvegicus, UniProt P26255)
T2 construct: host or cells: rat, in vivo (bladder)
Test: not given
Conditions: rats, intravenous administration, cystometric studies; prolonged micturition interval without increasing residual urine volume; cited from earlier work

T2 sequence (P26255 whole entry): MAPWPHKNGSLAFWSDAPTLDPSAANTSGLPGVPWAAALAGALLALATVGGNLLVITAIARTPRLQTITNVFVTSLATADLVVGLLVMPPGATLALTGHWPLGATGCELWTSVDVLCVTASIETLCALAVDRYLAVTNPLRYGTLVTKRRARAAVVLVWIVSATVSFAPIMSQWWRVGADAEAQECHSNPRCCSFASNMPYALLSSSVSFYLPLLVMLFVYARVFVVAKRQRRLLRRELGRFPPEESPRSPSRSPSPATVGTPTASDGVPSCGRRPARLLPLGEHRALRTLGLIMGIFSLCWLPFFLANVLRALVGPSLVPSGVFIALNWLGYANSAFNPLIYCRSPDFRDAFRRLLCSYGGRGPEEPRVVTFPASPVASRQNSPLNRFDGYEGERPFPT

| Compound | bladder capacity |
| --- | --- |
| C[C@H](Cc1ccc2c(c1)OC(C(=O)[O-])(C(=O)[O-])O2)NC[C@H](O)c1cccc(Cl)c1.[Na+].[Na+] [CL316243] | increases bladder capacity |

Same assay, conditions: rats, intravenous administration; cited from earlier work

| Compound | bladder pressure |
| --- | --- |
| C[C@H](Cc1ccc2c(c1)OC(C(=O)[O-])(C(=O)[O-])O2)NC[C@H](O)c1cccc(Cl)c1.[Na+].[Na+] [CL316243] | reduces bladder pressure |
